Laboratory results reported in patent US20100087491A1, “POLYCYCLIC COMPOUNDS” (priority 2006, published 2010).

Molecular target: T1, S1P1 receptor (Homo sapiens, UniProt P21453)
T1 construct: expressed in transfected cells
Experiment: S1P1 (EDG-1) GTP[γ-35S] binding assay, membranes from CHO cells
Format: biochemical
Details: CHO cell membranes
Protocol: A. In Vitro: GPCR Activation Assay Measuring GTP [γ-^35S] Binding to Membranes Prepared from CHO Cells Expressing Human S1P Receptors
S1P, (EDG-1) GTP [γ-^35S] binding assay: Homogenized membranes are prepared from CHO cell clones stably expressing a human EDG-1 N-terminal c-myc tag. Cells are grown in suspension in two 850 cm^2 roller bottles for three or fours days before harvesting. The cells are centrifuged down, washed once with cold PBS, and resuspended in ≦20 ml of Buffer A (20 mM HEPES, pH 7.4, […], EDTA-free complete protease inhibitor cocktail [1 tablet/25 ml]). The cell suspension is homogenized on ice, using a Polytron homogenizer at 30000 rpm at three intervals of 15 seconds each. The homogenate is first centrifuged at 2000 rpm on a tabletop low speed centrifuge for 10 minutes. The supernatant, after passing through a cell strainer, is then re-centrifuged at 50,000×g for 25 minutes at 4° C. The pellet is resuspended into buffer B (15% glycerol, 20 mM HEPES, pH 7.4, 0.1 mM EDTA, EDTA-free complete protease inhibitor cocktail [1 tablet/10 ml]). Protein concentration of the preparation is determined using the BCA Protein Assay kit (Pierce) using BSA as standard. The membranes are aliquoted and kept frozen at −80° C.
Solutions of test compounds ranging from 10 mM to 0.01 nM are prepared in DMSO. S1P is diluted in 4% BSA solution as positive controls. The desired amount of membrane preparation is diluted with ice-cold assay buffer (20 mM HEPES, pH 7.4, 100 mM NaCl, 10 mM MgCl2, 0.1% Fatty acid-free BSA, 5 μM GDP) and vortexed well. 2 μl or less of compound is distributed into each well of a round-bottom 96-well polystyrene assay plate, followed by addition of 100 μl of diluted membranes (3-10 μg/well) and kept on ice until the addition of hot GTPγS. [^35S]-GTPγS is diluted 1:1000 (v/v) with cold assay buffer and 100 μl is added into each well. The reaction is carried out at room temperature for 90 minutes before the membranes are harvested onto Perkin-Elmer Unifilter® GF/B-96 filter plate using a Packard Filtermate Harvester. […]

T1 sequence (P21453 whole entry): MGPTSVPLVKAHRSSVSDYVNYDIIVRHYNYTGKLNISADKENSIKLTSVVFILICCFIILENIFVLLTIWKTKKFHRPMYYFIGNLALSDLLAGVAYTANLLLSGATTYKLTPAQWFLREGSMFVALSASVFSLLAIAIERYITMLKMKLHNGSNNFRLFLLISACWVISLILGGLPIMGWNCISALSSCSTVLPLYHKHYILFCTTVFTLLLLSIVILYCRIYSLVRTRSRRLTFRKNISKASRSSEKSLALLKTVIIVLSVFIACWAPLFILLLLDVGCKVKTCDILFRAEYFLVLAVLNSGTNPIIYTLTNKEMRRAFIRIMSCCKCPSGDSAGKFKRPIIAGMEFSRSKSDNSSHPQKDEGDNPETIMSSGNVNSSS

In the case of `CCOc1ccc(-c2nc(-c3ccc(CN)cc3)no2)cc1C(F)(F)F` [Example 21], the EC50 is reported as < 100 nM.
In the case of `CNCc1ccc(-c2noc(-c3ccc(-c4ccccc4)c(C(F)(F)F)c3)n2)cc1` [Example 44], the EC50 is reported as < 100 nM.
For `CCc1cc(-c2noc(-c3ccc(OC(C)C)c(-c4ccccc4)c3)n2)ccc1S(N)(=O)=O` [Example 105], the EC50 was < 100 nM.
